According to the supplement of paper PMC10307832:

Assays:
Assay in all cases: relative viability (nuclei count vs DMSO), 5 days (fraction); higher = more cells survive
[1] = compound: CN1CCN(CC1)C2=CC(=C(C=C2)NC3=NC(=C(S3)C(=O)C4=C(C=CC=C4Cl)Cl)N)OC [XMD14-99] + COc1cccc2cc(-c3nc([C@H]4CC[C@H](C(=O)O)CC4)n4ncnc(N)c34)[nH]c12 [OSI-027] (partner 0.5 µM)
Summary of the method: (§1)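 One day after seeding in 1536-well plates, lung cancer cell lines were dosed by pin tool. Dosing was either single-drug or a fixed anchor-drug dose plus five library-drug doses (not always all listed) in √10 steps. After 5 days, nuclei were stained in one fix-and-stain step and counted on 4× images, and relative viability is the nuclei count of treated wells over that of vehicle wells, given as the median of duplicate plates.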

[2] = compound: CN1CCN(CC1)C2=CC(=C(C=C2)NC3=NC(=C(S3)C(=O)C4=C(C=CC=C4Cl)Cl)N)OC [XMD14-99] + CS(=O)(=O)N1CCN(Cc2cc3nc(-c4cccc5[nH]ncc45)nc(N4CCOCC4)c3s2)CC1 [Pictilisib] (partner 1 µM)
Summary of the method: as §1

[3] = compound: N[C@@H]1CCCN(c2c(/C=C3\SC(=O)NC3=O)cccc2-c2ccccc2)C1 [AZD1208] + CS(=O)(=O)CCNCc1ccc(-c2ccc3ncnc(Nc4ccc(OCc5cccc(F)c5)c(Cl)c4)c3c2)o1 [Lapatinib] (partner 2 µM)
Summary of the method: as §1

[4] = compound: N[C@@H]1CCCN(c2c(/C=C3\SC(=O)NC3=O)cccc2-c2ccccc2)C1 [AZD1208] + Cc1nc(Nc2ncc(C(=O)Nc3c(C)cccc3Cl)s2)cc(N2CCN(CCO)CC2)n1 [Dasatinib] (partner 0.075 µM)
Summary of the method: as §1

Row | Cell Line | relative viability ([1]; first compound 0.08 µM) | relative viability ([1]; first compound 0.8 µM) | relative viability ([1]; first compound 2.53 µM) | relative viability ([1]; first compound 8 µM) | relative viability ([2]; first compound 0.08 µM) | relative viability ([2]; first compound 0.8 µM) | relative viability ([2]; first compound 2.53 µM) | relative viability ([2]; first compound 8 µM) | relative viability ([3]; first compound 0.08 µM) | relative viability ([3]; first compound 0.253 µM) | relative viability ([3]; first compound 0.8 µM) | relative viability ([3]; first compound 2.53 µM) | relative viability ([3]; first compound 8 µM) | relative viability ([4]; first compound 0.08 µM) | relative viability ([4]; first compound 0.253 µM) | relative viability ([4]; first compound 0.8 µM) | relative viability ([4]; first compound 2.53 µM) | relative viability ([4]; first compound 8 µM)
1 | SW 1573 | 0.629 | 0.758 | 0.599 | 0.493 | 0.434 | 0.531 | 0.496 | 0.547 | 1.02 | 1.07 | 0.959 | 1.01 | 1.05 | 0.404 | 0.537 | 0.438 | 0.586 | 0.319
2 | NCI-H1975 | 0.825 | 0.822 | 0.653 | 0.535 | 0.286 | 0.317 | 0.257 | 0.197 | 0.916 | 1.1 | 0.838 | 0.893 | 1.07 | 0.388 | 0.363 | 0.36 | 0.361 | 0.381
3 | NCI-H1651 | 0.815 | 0.691 | 0.622 | 0.531 | 0.547 | 0.521 | 0.593 | 0.461 | 0.805 | 0.784 | 0.717 | 0.643 | 0.62 | 0.406 | 0.461 | 0.38 | 0.319 | 0.307
4 | NCI-H460 | 0.626 | 0.626 | 0.646 | 0.269 | 0.335 | 0.378 | 0.345 | 0.254 | 1.03 | 1.71 | 0.867 | 1.01 | 0.964 | 0.54 | 0.562 | 0.473 | 0.365 | 0.334
5 | LCLC-97TM1 | 0.412 | 0.452 | 0.555 | 0.442 | 0.165 | 0.217 | 0.17 | 0.172 | 1.03 | 0.92 | – | 0.882 | 0.546 | 0.88 | 0.827 | 0.82 | 0.631 | 0.891
6 | NCI-H838 | 0.481 | 0.403 | 0.356 | 0.298 | 0.434 | 0.411 | 0.38 | 0.296 | 0.988 | 1.17 | 0.856 | 0.936 | 0.86 | 0.329 | 0.365 | 0.272 | 0.311 | 0.274
7 | NCI-H1355 | 0.395 | 0.367 | 0.337 | 0.292 | 0.483 | 0.439 | 0.378 | 0.327 | 1.04 | 0.995 | 0.777 | 1.09 | 0.71 | 0.732 | 0.55 | 0.628 | 0.641 | 0.48
8 | HOP-62 | 0.873 | 0.877 | 0.772 | 0.662 | 0.917 | 0.842 | 0.808 | 0.646 | 1.14 | 1.05 | 0.985 | 0.875 | 0.889 | 0.679 | 0.712 | 0.541 | 0.572 | 0.647
9 | NCI-H2087 | 0.524 | 0.487 | 0.45 | 0.299 | 0.95 | 0.787 | 0.602 | 0.525 | 1.11 | 1.32 | 1.13 | 1.47 | 0.9 | 0.763 | 0.824 | 0.641 | 0.573 | 0.715
